Assay results: patent US11891655B2, “Probe for selectively characterizing enzymes involved in xenobiotic metabolism and method of making and using the same” (Battelle Memorial Institute, priority 2017, dated 2024)

Assays:
[1] = test system: GSTs in mouse liver cytosol
recombinant human GSTM1 = molecular target: T1, recombinant human GSTM1 (Homo sapiens, UniProt P09488); assay: Concentration-dependent probe labeling of recombinant GST (SDS-PAGE); type: binding; conditions: increasing probe concentrations, 30 minutes incubation, rhodamine click
T1 sequence (P09488 1-218): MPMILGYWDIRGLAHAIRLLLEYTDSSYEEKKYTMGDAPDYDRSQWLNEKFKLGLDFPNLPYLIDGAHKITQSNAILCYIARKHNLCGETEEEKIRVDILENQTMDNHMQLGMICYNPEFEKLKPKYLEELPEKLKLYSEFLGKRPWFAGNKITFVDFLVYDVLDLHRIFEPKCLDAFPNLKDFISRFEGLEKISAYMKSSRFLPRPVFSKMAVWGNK
Protocol: FIG. 15A show results from labeling glutathione transferase (GSH and GST) with probe embodiments described herein using 1 μM recombinant human GSTm1.
(§1) Concentration dependent labeling of a recombinant GST (FIG. 15A) was evaluated. The two probe embodiments, GSH-ABP-G and GST-ABP-H, were applied with increasing concentrations to the recombinant human GSTM1, a GST isoenzyme that is highly expressed in mammalian liver. […] Both probes were then applied with increasing concentrations to the cytosolic fraction of mouse liver lysate to further test probe targeting (FIG. 15B). Both probes strongly label two distinct bands at 24 kDa. The lower band is likely GSTP1, a 23.6 kDa protein highly abundant in the liver. […] To determine the specific GST isoforms targeted by each probe, LC-MS based proteomics analyses of mouse liver labeling, and labeling in the presence of specific inhibitors were performed (FIGS. 16A and 16B). […] 27 probe-targeted proteins were determined to be statistically significant targets of the GSH-ABP-G probe embodiment at a fold-change of 3 over no UV exposure controls. Of these 27 proteins, 8 are known GSTs and include members of mu, alpha, pi, theta, kappa, and zeta classes. The remaining proteins include five proteins with known GSH binding, one with known antioxidant and drug binding activity, and five proteins highly abundant in liver with no known GSH binding activity. […]

[2] = test system: cytosolic fraction of mouse liver lysate; type: binding; conditions: increasing probe concentrations; SDS-PAGE
Protocol: FIG. 15B show results from labeling glutathione transferase (GSH and GST) with probe embodiments described herein using 1 μM mouse liver cytosol.
as §1

[3] = test system: GST isoenzymes in lung lysate; assay: LC-MS proteomics of probe-enriched mouse lung lysate; type: binding
gut microbiota = type: in vivo, mouse; conditions: vancomycin in drinking water 0.1 mg/mL
[4] = test system: glucuronidase activity in the gut microbiome; type: in vivo, mouse; conditions: vancomycin in drinking water 0.1 mg/mL; 4 of 5 sets of litter mates
Protocol: For the glucuronidase studies, female C57BL/6J mice age 6-8 weeks were purchased from Jackson Laboratories and housed with a 12 hour light/12 hour dark light cycle. Food (PMI 5002) and water were provided ad libitum. Mice were acclimated for 7 days prior to the onset of any treatment. During this time, littermates were co-housed. After this time, mice were placed in separate cages for antibiotic treatment. One set of littermates (n=5) were exposed to vancomycin in drinking water (0.1 mg/mL). The other set were given normal water. To monitor for adverse reactions to the antibiotics, researchers could not be blinded to treatment group during exposure, and were not blinded during subsequent analysis.
Microbial cells from the mouse gut were suspended in PBS with protease inhibitor (cOmplete EDTA-free Protease Inhibitor, Roche) and lysed via bead beating (Bullet Blender). 4-methylumbelliferyl-s-D-glucuronide (4-MUG; 1 mM) was added to 50 μL lysate (0.9 μg total protein) to achieve a final concentration of 500 μM. […] Fluorescence was measured using a plate reader (Molecular Biosciences), and amount of hydrolyzed substrate was calculated relative to a standard curve. Rate (mM/s) was determined via linear regression (GraphPad Prism) and activity was calculated as rate per μg protein. […]

[5] = test system: GSTs (H site) in mouse liver cytosol; conditions: read-out: EC50 of inhibition of GST-ABP-H probe labeling, 10 μM probe
[6] = 10 μM probe, mouse liver cytosol

| Compound | number of GSTs enriched by probe in mouse liver [1, 6] | labeling of recombinant human GSTM1 (recombinant human GSTM1) | selectivity of labeling in mouse liver cytosol [2] | number of GST isoenzymes enriched by probe in lung lysate [3] | further results |
| --- | --- | --- | --- | --- | --- |
| C#CCCCC(=O)Nc1cccc2c1C(=O)C(Cl)=C(Cl)C2=O [GST-ABP-H, N-(6,7-dichloro-5,8-dioxo-5,8-dihydronaphthalen-1-yl)hex-5-ynamide] | 12 | concentration-dependent targeting | more susceptible to off-target labeling | 11 | – |
| CN[C@H](CC(C)C)C(=O)N[C@H]1C(=O)N[C@@H](CC(N)=O)C(=O)N[C@H]2C(=O)N[C@H]3C(=O)N[C@H](C(=O)N[C@H](C(=O)O)c4cc(O)cc(O)c4-c4cc3ccc4O)[C@H](O)c3ccc(c(Cl)c3)Oc3cc2cc(c3O[C@@H]2O[C@H](CO)[C@@H](O)[C@H](O)[C@H]2O[C@H]2C[C@](C)(N)[C@H](O)[C@H](C)O2)Oc2ccc(cc2Cl)[C@H]1O [Vancomycin] | – | – | – | – | relative abundance of Firmicutes in gut microbiota (gut microbiota): dramatically decreased; glucuronidase activity in gut microbiome after treatment [4]: reduced, but did not eliminate |
| CCCCCCSC[C@H](NC(=O)CC[C@H](N)C(=O)O)C(=O)NCC(=O)O [S-hexylglutathione, reference compound] | – | – | – | – | fold change inhibition of GST-ABP-H and GSH-ABP-G labeling of GSTA3, M1, and P1 ([1]; S-hexylglutathione competed liver cytosol, p≤0.05): > 3.0; EC50 [5]: 41.5 µM |
| CCN1C(=O)C=CC1=O [N-ethylmaleimide, reference compound] | – | – | – | – | competition of GST-ABP-H labeling (proteomic analysis) ([1]; competitor 100 μM, mouse liver cytosol): failed to compete for binding of most GST isoenzymes |
| C#CCNC(=O)C(Cc1ccc(C(=O)c2ccccc2)cc1)NC(=O)CSCC(NC(=O)CC[C@H](N)C(=O)O)C(=O)NCC(=O)O (some centres unmarked) [GSH-ABP-G, N5-(3-((2-((3-(4-benzoylphenyl)-1-oxo-1-(prop-2-yn-1-ylamino)propan-2-yl)amino)-2-oxoethyl)thio)-1-((carboxymethyl)amino)-1-oxopropan-2-yl)glutamine] | 8 | concentration-dependent targeting | high selectivity | 3 | number of statistically significant probe-targeted proteins ([1]; fold-change of 3 over no UV exposure controls, 10 μM probe): 27 |
